# From patent US7416741B2, “Copper lowering treatment of inflammatory and fibrotic diseases” (The Regents of the University of Michigan, priority 2002, dated 2008)
# Assays:
# [1] = Body weight and hematocrit in the bleomycin mouse model; format: in vivo; details: for Weight / Hematocrit: sacrifice day 21; for protection against weight loss from bleomycin: Ex 1 Exp 2; for mean hematocrit: day 21
# Experimental: Mice. Female CBA/J mice at 8-10 weeks of age were from the Jackson Laboratories (Bar Harbor, Me.). These mice weighed an average of 21.4 g at the start of experiments, with a standard deviation of 1.7 g.
# Bleomycin treatment. This was undertaken on day 0 by endotracheal instillation through the oral cavity after exposure of the airway by pulling the tongue. Each mouse received 0.001 units of bleomycin (Bristol-Myers, Evansville, Ind.)/gm body weight in 30 μl of sterile saline, while control mice received an equal volume of sterile saline only.
# TM treatment experiments. TM was given in 0.25 ml of water by intragastric gavage once daily, in the doses and times indicated in the various studies as described below.
# There were four experimental groups of five to seven mice each. Group 1 received bleomycin, group 2 was a saline control, group 3 received bleomycin and TM therapy, and group 4 was a TM therapy control. The TM was given in a dose of 0.7 mg/mouse/day beginning 7 days prior to bleomycin treatment. During days 9 to 11 after bleomycin, the TM-treated mice received 1.2 mg of TM daily, to ensure adequate lowering of copper levels, and then received 0.7 mg daily for the duration of the study. The mice were sacrificed 21 days after bleomycin treatment.
# In this experiment, the effect of TM at different doses after bleomycin administration was examined. Experimental groups of four bleomycin-treated and two to four control (non-bleomycin treated) mice were given varying doses of TM. Initially, All TM-treated mice received identical loading doses of 1.2 mg/mouse/day for 3 days (minus 5 to minus 3 days) prior to bleomycin administration. From that point on, groups of mice were given 0.3, 0.5, 0.7, or 0.9 mg of TM/mouse/day until sacrifice at day 21 after bleomycin treatment. A group of four bleomycin treated and a group of four non-bleomycin treated mice received no TM.
# Three experiments were carried out. Experiment 1 comprised four groups of three mice each. Group 1 received bleomycin only, group 2 received bleomycin and TM therapy, group 3 received saline in the trachea rather than bleomycin, and group 4 received TM therapy only. The mice in groups 2 and 4 each received 1.2 mg of TM per day for four days prior to bleomycin, and then were given 0.9 mg TM per day until sacrifice at seven days after bleomycin.
# Experiment 2 comprised four groups of five mice each. The four groups were assigned as in experiment 1 to bleomycin, bleomycin and TM, saline rather than bleomycin, and TM only. Groups 2 and 4 were started on TM five days after bleomycin treatment at a dose of 1.2 mg per day for four days, and then 0.9 mg per day until sacrifice at day 21.
# [2] = test system: bleomycin mouse model of pulmonary fibrosis; assay: Microscopic evaluation of the lungs (H&E, Masson-trichrome); format: in vivo
# Source text: Microscopic evaluation of the lungs. For morphological evaluation of fibrosis, lungs were inflated with formalin at the time of sacrifice, and after overnight fixation were embedded in paraffin and sections prepared for H&E staining as well as for Masson-trichrome staining for evaluation of collagen deposition as previously described (M Gharaee-Kermani et al., J. Leukoc. Biol., 64:657-666 [1998]).
# TGFβ = assay: Lung TGFβ levels (ELISA or PAI-1 promoter-luciferase cell line), bleomycin model; format: in vivo, mouse
# Experimental: Lung TGFβ levels were measured using either ELISA with a kit from R&D Systems (Minneapolis, Minn.), or using a cell line stably transfected with a plasminogen activator inhibitor-1 (PAI-1) promoter-luciferase construct (M Abe et al., Analytical Biochemistry, 216:276-284 [1994]). Briefly for the latter assay, mink lung epithelial cells transfected with the PAI-1 promoter construct were incubated with the indicated activated (by pre-acidification) test samples diluted (1:2 dilution) in fresh media. After a 24 hr incubation, the cells were lysed with reporter lysis buffer (Promega, Madison, Wis.). Luciferase activity was measured by the luciferase assay system (Promega) and read using a Reporter microplate luminometer (Turner Designs, Sunnyvale, Calif.). Human TGFβ1 (R&D Systems) was used as a standard.
# α-smooth muscle actin = assay: α-Smooth muscle actin assay (ELISA) in lung homogenates; format: in vivo, mouse; details: Ex 2 Exp 2; day 21; p=0.09
# Experimental: α-Smooth muscle actin assay. De novo appearance of myofibroblasts is a hallmark of active fibrosis, and these cells are known as the primary source of interstitial collagen in pulmonary fibrosis (See e.g., K Zhang et al., Am. J. Pathol, 145:114-125 [1994]). Since α-smooth muscle actin is a marker of myofibroblast differentiation, the level of this protein in lung tissue homogenates was measured by ELISA as before (use same reference above for TGFβ assay by ELISA).
# Cp = assay: Serum Cp in the Con A mouse model; format: in vivo; details: Ex 5 Exp 1; after fourth Con A injection
# Source text: Twenty-four hours after each of the first three injections, one mouse from each group was bled, and serum ALT measured. In this experiment, TM was started in the TM treated mice before the first Con A injection. After the fourth injection of Con A, all the mice were bled for ALT and Cp measurements and the experiment terminated. The Cp levels in TM treated mice were 25-50% of non-TM treated animals.
# TNFα = assay: Plasma TNFα in Con A treated mice; format: in vivo, mouse; details: Ex 5 Exp 3; TM from 5 days before first of two Con A injections; 2 hrs after last; p=0.03
# Source text: (§1) In a third experiment, two Con A injections one week apart were given to 10 mice. Five of the mice had begun TM treatment 5 days prior to the first injection. All the mice were sacrificed 2 hrs after the last Con A injection.
# IL-1β = assay: Plasma IL-1β in Con A treated mice; format: in vivo, mouse; details: Ex 5 Exp 3; p=0.15
# Source text: as §1
compound,measurement,setting,value
"[SH-].[SH-].[S]=[Mo]=[S] [TM, tetrathiomolybdate]",Weight,"[1]; Ex 1 Exp 1, Bleomycin/TM group, TM 0.7 mg/mouse/day gavage from 7 days before bleomycin",21.2 ± 0.8 g
same,Hematocrit,"[1]; Ex 1 Exp 1, Bleomycin/TM group",39.7 ± 2.6
same,effect of TM alone on weight,"[1]; Ex 1 Exp 1, TM alone (group 4)",tended to produce some weight loss
same,Weight,"[1]; Ex 1 Exp 1, TM only group (no bleomycin), 0.7 mg/mouse/day",20.4 ± 1.0 g
same,Hematocrit,"[1]; Ex 1 Exp 1, TM only group",44.1 ± 1.0
same,protection against bleomycin induced weight loss,"[1]; Ex 1 Exp 1, bleomycin/TM group",protected against some of the bleomycin induced weight loss
same,protection against weight loss from bleomycin,[1]; 0.3 mg TM dose,only slightly protective
same,protection against weight loss from bleomycin,[1]; 0.5 mg TM dose,intermediately protective
same,protection against weight loss from bleomycin,[1]; 0.7 mg TM dose,intermediately protective
same,protection against weight loss from bleomycin,[1]; 0.9 mg TM dose,fully protective
same,mean weight in the bleomycin/TM group,"[1]; Ex 2 Exp 1, sacrifice day 7",almost exactly the same as the saline control group
same,mean hematocrit,"[1]; Ex 2 Exp 2, TM group",43.8%
same,mean weight at the time of sacrifice,"[1]; Ex 2 Exp 2, bleomycin/TM group, TM started 5 days after bleomycin",19.6 g
same,mean hematocrit,"[1]; Ex 2 Exp 2, bleomycin/TM group",44.3%
same,collagen deposition (Masson-trichrome),"[2]; Ex 1 Exp 1, TM treated group vs bleomycin only",much less collagen deposition
same,lung histopathology (H&E): patches of fibrosis and inflammatory cells,"[2]; Ex 1 Exp 1, TM-treated bleomycin animals vs bleomycin alone",substantially smaller with lesser degrees of cellular infiltration
same,histopathological evaluation of fibrotic lesions,"[2]; Ex 1 Exp 2, increasing TM dose",diminution of fibrotic lesion size with increasing dose of TM
same,"lung TGFβ protein level (ELISA), bleomycin-induced increase","TGFβ; Ex 2 Exp 1, bleomycin/TM, day 7, p=0.06",inhibited this increase
same,"lung TGFβ protein levels (PAI-1 promoter-luciferase), bleomycin-induced increase","TGFβ; Ex 2 Exp 2, TM from day 5, day 21, not statistically significant",completely inhibited this increase
same,lung TGFβ protein levels (ELISA),"TGFβ; Ex 2 Exp 3, TM started 5 days prior to bleomycin (Bleo/TM-5), p=0.04",significantly inhibited
same,"lung SMA (α-smooth muscle actin) protein levels, bleomycin-induced increase",α-smooth muscle actin,inhibited most of the increase
same,Cp levels in TM treated mice relative to non-TM treated animals,Cp,25-50%
same,Plasma levels of TNFα,TNFα,significantly lower
same,plasma levels of IL-1β,IL-1β,close to being significantly lower
